In patent publication US8637237B2, “Methods, compositions, and systems for the identification of species-specific or developmental stage-specific insecticides” (The University of North Carolina at Greensboro, priority 2003, dated 2014):
Read-outs that look alike come from different tables or passages of the source.

What was measured:
[1] = via 20,22-dihydroxycholesterol intermediate; read-out: apparent Km of metabolism to pregnenolone; cited from earlier work
FXR = target: T1, FXR (Rattus norvegicus, UniProt Q62735); assay: cell-based
T1 sequence (Q62735 1-469): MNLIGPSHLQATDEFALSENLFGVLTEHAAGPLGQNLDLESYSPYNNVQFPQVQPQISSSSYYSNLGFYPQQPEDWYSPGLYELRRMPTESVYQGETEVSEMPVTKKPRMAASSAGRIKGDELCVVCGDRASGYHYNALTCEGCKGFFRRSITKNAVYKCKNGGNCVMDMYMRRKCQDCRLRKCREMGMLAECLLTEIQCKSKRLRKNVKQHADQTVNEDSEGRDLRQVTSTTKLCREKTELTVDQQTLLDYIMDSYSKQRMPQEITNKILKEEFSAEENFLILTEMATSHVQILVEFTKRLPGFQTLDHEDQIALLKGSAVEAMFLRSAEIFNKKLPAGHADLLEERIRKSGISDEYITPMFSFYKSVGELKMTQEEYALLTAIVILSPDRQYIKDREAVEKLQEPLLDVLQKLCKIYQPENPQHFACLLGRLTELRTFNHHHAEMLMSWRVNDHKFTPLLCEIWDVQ
T1 sequence (P28700 1-467 partner): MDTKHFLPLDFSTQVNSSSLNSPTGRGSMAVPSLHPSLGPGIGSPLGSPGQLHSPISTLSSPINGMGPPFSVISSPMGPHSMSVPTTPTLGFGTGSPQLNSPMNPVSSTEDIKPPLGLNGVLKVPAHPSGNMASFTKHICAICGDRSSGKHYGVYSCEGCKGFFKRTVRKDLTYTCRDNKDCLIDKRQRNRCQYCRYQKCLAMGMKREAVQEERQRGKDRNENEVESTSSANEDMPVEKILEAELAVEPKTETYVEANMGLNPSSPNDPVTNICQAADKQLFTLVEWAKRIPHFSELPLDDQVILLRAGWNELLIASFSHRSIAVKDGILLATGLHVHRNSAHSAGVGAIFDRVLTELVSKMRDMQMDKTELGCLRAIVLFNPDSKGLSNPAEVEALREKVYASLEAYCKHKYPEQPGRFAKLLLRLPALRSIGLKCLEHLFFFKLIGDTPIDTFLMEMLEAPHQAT
Method in brief: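 CHO cells co-transfected with FXR, mouse RXRα and a (EcRE)5-ΔMTV-CAT reporter, with β-galactosidase for normalization. An RXR-dependent CRBPII-CAT reporter was run in parallel. Cells were exposed to candidate juvenoids for 24 h; CAT activity normalized to β-gal and expressed as fold induction over vehicle controls.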

[2] = test system: Leptinotarsa decemlineata EcR; assay: Leptinotarsa decemlineata EcR/USP, response to agonists (FIG. 7, 8); assay type: cell-based; settings: FIG. 8
Description: Unless noted otherwise, 100 ng of each EcR and USP plasmid was transfected into 2 ml of cell culture medium. As noted above, a reporter gene carrying five tandem copies of the hsp27 ecdysone response element (Riddihough and Pelham, 1986) is attached to a constitutive thymidine kinase promoter and a luciferase reporter gene (pEcREtk-LUC) and cotransfected into the cells along with vectors expressing EcR, USP, and a constitutively active β-galactosidase gene with lipofection, following manufacturer's protocols. The subsequent measure of luciferase activity reflects ecdysteroid-inducible transcription.
After a 4 hour transfection period, the hormone treatment was applied by diluting stock solutions of muristerone A (murA; Alexis Corporation, San Diego, Calif.), JHI (Scitech), JHIII (Sigma, St Louis, Mo.), and/or 20E (Sigma, St Louis, Mo.) in DMSO. The cells were harvested 24 hours after treatment and the contents of the cells extracted for performing the luciferase and β-galactosidase assays.
Leptinotarsa decemlineata (Ld) USP constructs were made by sub-cloning two different LdUSP inserts into the pVP16 vector (Clontech). This vector encodes a fusion protein of the herpes simplex virus […] viral protein (VP16) activation domain (AD) fused to LdUSP. The LdUSP portion of the fusion gene was isolated by PCR in two different lengths from a plasmid, pBSKS(+)-LdUSP. […]

GGEc = target: T2, GGEc (Drosophila melanogaster, UniProt P34021); assay: GGEc chimera (GR amino terminus and DBD, EcR LBD) with RXR in CHO cells; assay type: cell-based
T2 construct: were replaced by EcR LBD amino acids (EcR amino acids 329 to 878); expressed in transfected cells; host or cells: CHO
T2 sequence (P34021 329-878): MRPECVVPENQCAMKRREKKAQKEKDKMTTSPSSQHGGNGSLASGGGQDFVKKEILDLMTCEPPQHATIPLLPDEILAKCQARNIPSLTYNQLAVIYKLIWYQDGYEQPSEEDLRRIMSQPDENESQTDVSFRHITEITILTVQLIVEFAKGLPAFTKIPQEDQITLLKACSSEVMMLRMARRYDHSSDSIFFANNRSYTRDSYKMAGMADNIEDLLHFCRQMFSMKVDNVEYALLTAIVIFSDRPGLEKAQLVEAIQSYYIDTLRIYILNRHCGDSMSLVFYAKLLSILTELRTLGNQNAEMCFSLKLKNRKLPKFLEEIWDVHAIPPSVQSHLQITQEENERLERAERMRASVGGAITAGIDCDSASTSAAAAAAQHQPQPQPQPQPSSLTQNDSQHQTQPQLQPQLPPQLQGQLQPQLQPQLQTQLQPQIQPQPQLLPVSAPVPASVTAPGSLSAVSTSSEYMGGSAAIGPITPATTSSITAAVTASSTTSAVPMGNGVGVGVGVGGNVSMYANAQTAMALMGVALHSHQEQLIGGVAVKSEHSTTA
Source text: For these experiments, the luciferase reporter construct was used. To obviate influences from other transcription factors, results were normalized using a reporter plasmid from which CAT expression is driven by a minimal promoter consisting of dimerized GREs linked upstream of a 13 base pair TATA box DNA element derived from the adenovirus E1B gene.
In this experiment, GGEc and RXR were transfected into CHO cells with either a CAT or a luciferase reporter plasmid containing 1.5 kilobase pairs of the glucocorticoid-inducible mouse mammary tumor virus (MTV) promoter.
In these experiments, CHO cells were transfected with a GGEc-expressing plasmid, a mouse RXRα expression plasmid, and an adenovirus E1b TATA-(GRE)2-CAT reporter plasmid. The GGEc plasmid was eliminated from DNA mixtures added to cells transfected in parallel. CAT activities were measured from lysates of cells from triplicate wells treated with ethanol vehicle, juvocimene (20 μM), muristerone A (0.2 μM), or both.
In these experiments, CHO cells were transfected with DNAs as described above but ubiquinone-2 (10 μM) was substituted for juvocimene.

GGF = target: T3, GGF (Rattus norvegicus, UniProt Q62735); assay: GGF chimera (GR amino terminus and DBD, FXR LBD) in CHO cells; assay type: cell-based; settings: data not shown
T3 construct: the GR amino terminus and DBD (appending 23 amino acids downstream from the conserved gly-met) were fused to the FXR LBD; expressed in transfected cells; host or cells: CHO
Source text: A plasmid was constructed that expresses a hybrid protein (GGF) consisting of the human GR amino terminus and DBD linked to the carboxyl terminus of FXR.
In these experiments, CHO cells were transfected with receptor plasmids expressing GGF and mouse RXRα and a luciferase reporter plasmid containing the upstream 1.5 kbp of the MTV promoter.

insect = settings: from Schneiderman and Gilbert, Science 143; cited from earlier work
GR = GR (Homo sapiens, UniProt P04150); assay: GR-based transcriptional assay; assay type: cell-based; settings: data not shown
PPAR = assay: PPAR-based transcriptional assay; assay type: cell-based; settings: data not shown
RXR = RXR (Mus musculus, UniProt P28700); assay: RXR-based transcriptional assay; assay type: cell-based; settings: data not shown
RAR = assay: RAR-based transcriptional assay; assay type: cell-based; settings: data not shown
tobacco hornworm larvae = settings: cited from earlier work

GR, sequence (P04150 whole entry): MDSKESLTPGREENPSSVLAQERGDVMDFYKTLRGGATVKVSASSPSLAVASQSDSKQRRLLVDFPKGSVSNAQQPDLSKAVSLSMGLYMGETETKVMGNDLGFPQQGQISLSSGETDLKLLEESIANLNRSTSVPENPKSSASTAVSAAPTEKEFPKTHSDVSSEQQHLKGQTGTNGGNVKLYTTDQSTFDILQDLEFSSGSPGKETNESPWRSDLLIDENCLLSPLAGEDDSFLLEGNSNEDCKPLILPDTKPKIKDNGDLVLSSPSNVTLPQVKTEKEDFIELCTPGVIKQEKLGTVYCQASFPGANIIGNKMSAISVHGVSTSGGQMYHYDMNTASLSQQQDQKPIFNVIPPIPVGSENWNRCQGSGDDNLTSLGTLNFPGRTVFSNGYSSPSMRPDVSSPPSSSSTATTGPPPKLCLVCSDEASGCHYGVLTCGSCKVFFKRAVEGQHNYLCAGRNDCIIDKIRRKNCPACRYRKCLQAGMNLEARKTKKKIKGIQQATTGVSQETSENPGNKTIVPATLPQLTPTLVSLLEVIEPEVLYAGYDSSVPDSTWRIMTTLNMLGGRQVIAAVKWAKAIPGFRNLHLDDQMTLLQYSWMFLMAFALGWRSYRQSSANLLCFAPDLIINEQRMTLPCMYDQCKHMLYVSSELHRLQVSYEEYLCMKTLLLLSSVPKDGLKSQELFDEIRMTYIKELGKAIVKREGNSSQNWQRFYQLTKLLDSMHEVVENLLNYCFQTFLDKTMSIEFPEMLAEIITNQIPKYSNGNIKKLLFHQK

For `CC(C)CC[C@@H](O)[C@@H](C)[C@H]1CC[C@H]2[C@@H]3CC=C4C[C@@H](O)CC[C@]4(C)[C@H]3CC[C@]12C` [22R-hydroxycholesterol, 22R-Hydroxycholesterol], the Km [1] is listed as 7 µM and the “FXR-dependent transcription, induction” value (FXR; 7.5 μM) is listed as 10 fold.
In the case of `COc1cccc(C(=O)NN(C(=O)c2cc(C)cc(C)c2)C(C)(C)C)c1C` [RH2485], the “stimulation of Leptinotarsa EcR, agonists compared” value [2] is reported as “much greater stimulation by RH2485, than by murA or 20E”.
With `COC1=C(OC)C(=O)C(C/C=C(\C)CCC=C(C)C)=C(C)C1=O` [U2, ubiquinone-2] the “FXR-dependent activity, induction” value (FXR; dose not stated) was 7 fold and the “GGEc-dependent activity increase over MUR” value (GGEc; 10 μM ubiquinone-2, muristerone A) was 7 times.
In the case of `O=c1ccc2cc(O)c(O)cc2o1` [esculetin], the “FXR-dependent activity, induction” value (FXR; 1 mM) is reported as “ineffectiveness”, the inhibition at 100 µM (FXR; CHO, read-out: inhibition of FXR activity induced by farnesol) is reported as 44% and the “inhibition of CDCA-induced GGF-dependent activity” value (GGF) is reported as 54%.
For `C=CC(C)(O)CCC=C(C)CCC=C(C)C` (centres unmarked) [nerolidol], the “JH ACTIVITY (units/g)” value (insect) is given as 8.9 units/g, the EC50 (FXR) is given as 15 µM and the “FXR-dependent CAT activity, induction” value (FXR; 50 μM) is given as 9 fold. For the same molecule, the “FXR ACTIVITY (fold-induction)” value (FXR; final dose of 50 ∝M, 1 = induction less than 2-fold below cytotoxic doses) was 9 fold-induction and the “GGEc transcription with compound plus MUR relative to MUR alone” value (GGEc; 50 μM compound, 0.2 μM MUR) was “between two and four times more”.
With `COc1ccc2c(c1)OC(C)(C)C=C2` [precocene I] the “activity in GR-based transcriptional assay” value (GR) was “inactive”, the “activity in PPAR-based transcriptional assay” value (PPAR) was “inactive” and the “reduction of FXR activity of mouse liver microsome extract by ethyl acetate-soluble products” value (FXR; 100 μM TLC-purified precocene I incubated with CD-1 mouse liver microsomes, NADPH, 37° C., one hour) was 70%. For the same molecule, the “FXR-dependent activity, induction” value (FXR; dose not stated) was 15 fold, the “FXR activity of TLC-separated material from precocene I” value (FXR; eluted from silica, hexane-ethyl acetate (9:1)) was “did not affect FXR” and the EC50 (FXR; read-out: EC50 for FXR-dependent CAT activity) was 150 µM. The “activity in RXR-based transcriptional assay” value (RXR) was “inactive” and the “activity in RAR-based transcriptional assay” value (RAR) was “inactive”.
In the case of `Cn1c(=O)c2[nH]cnc2n(C)c1=O` [theophylline], the “FXR-dependent activity, induction” value (FXR; 3 mM) is reported as 12 fold, the “FXR ACTIVITY (fold-induction)” value (FXR; dose 3000 μM) is reported as 12 fold-induction and the “FXR-dependent activity, induction” value (FXR; theophylline (3 mM) mixed with 8-Br-cAMP (1 mM)) is reported as “more than 100 fold”. For the same molecule, the “concentration in tobacco hornworm larvae” value (tobacco hornworm larvae; three days after eating tomato leaves sprayed with 1% theophylline) was 4000 µM and the “reduction of leaf consumption” value (tobacco hornworm larvae; tomato leaves sprayed with 1% theophylline) was “by half”.
